≈ marks a conversion by molar mass, not a printed value. Counter-ions that a name gives are not always drawn.
Experiment: Solubility assay (high throughput 96-well plate, pH 7.4 phosphate buffer)
Type: physicochemical
Settings: aqueous buffer, thermodynamic from solid, shaken two days at room temperature, UV-UPLC
Protocol: Solubility measurements were performed using a high throughput 96-well plate based assay. For this, 0.2 mg of sample compound was weighed and added to a sample plate in triplicate and 650 μL of pH 7.4 phosphate buffer was added. The sample plate was capped, allowed to shake on a plate shaker for two days at room temperature, and then centrifuged (2000 rpm, 10 minutes) to settle undissolved solids. Approximately 600 μL of the aqueous supernatant slurry from each sample plate was transferred to a filter plate mounted on top of a receiver plate. Vacuum was applied to collect the filtrate. Appropriate dilutions were made in 50/50 methanol/water and quantification for concentration was performed against known standards by UV-UPLC. Some preferred compounds of the invention have greater solubility than the parent compound (P), N,N′-[(2S)-2-hydroxybicyclo[2.2.2]octane-1,4-diyl]bis[2-(4-chloro-3-fluorophenoxy)acetamide].

Row | SMILES | solubility at 2 days [µM]
1 | O=C(COc1ccc(Cl)c(F)c1)NC12CCC(NC(=O)COc3ccc(Cl)c(F)c3)(CC1)[C@@H](OC(=O)CCCOP(=O)(O)O)C2 [Compound 120, (2S)-1,4-bis[2-(4-chloro-3-fluorophenoxy)acetamido]bicyclo[2.2.2]octan-2-yl 4-(phosphonooxy)butanoate] | 812 (≈ 565 µg/mL)
2 | O=C(COc1ccc(Cl)c(F)c1)NC12CCC(NC(=O)COc3ccc(Cl)c(F)c3)(CC1)[C@@H](OC(=O)OCCOP(=O)(O)O)C2 [Compound 121, (2S)-1,4-bis[2-(4-chloro-3-fluorophenoxy)acetamido]bicyclo[2.2.2]octan-2-yl 2-(phosphonooxy)ethyl carbonate] | > 1000
3 | CC(C)(COP(=O)(O)O)CC(=O)O[C@H]1CC2(NC(=O)COc3ccc(Cl)c(F)c3)CCC1(NC(=O)COc1ccc(Cl)c(F)c1)CC2 [Compound 122, (2S)-1,4-bis[2-(4-chloro-3-fluorophenoxy)acetamido]bicyclo[2.2.2]octan-2-yl 3,3-dimethyl-4-(phosphonooxy)butanoate] | 317 (≈ 229 µg/mL)
4 | N[C@@H](CC(=O)O[C@H]1CC2(NC(=O)COc3ccc(Cl)c(F)c3)CCC1(NC(=O)COc1ccc(Cl)c(F)c1)CC2)C(=O)O [Compound 102, (2S)-2-amino-4-({(2S)-1,4-bis[2-(4-chloro-3-fluorophenoxy)acetamido]bicyclo[2.2.2]octan-2-yl}oxy)-4-oxobutanoic acid] | 59 (≈ 38 µg/mL)
5 | O=C(COc1ccc(Cl)c(F)c1)NC12CCC(NC(=O)COc3ccc(Cl)c(F)c3)(CC1)[C@@H](OC(=O)Cc1ccccc1OP(=O)(O)O)C2 [Compound 115] | 936 (≈ 696 µg/mL)
6 | CN(C(=O)O[C@H]1CC2(NC(=O)COc3ccc(Cl)c(F)c3)CCC1(NC(=O)COc1ccc(Cl)c(F)c1)CC2)c1ncccc1COP(=O)(O)O [Compound 116, (2S)-1,4-bis[2-(4-chloro-3-fluorophenoxy)acetamido]bicyclo[2.2.2]octan-2-yl methyl{3-[(phosphonooxy)methyl]pyridin-2-yl}carbamate] | 903 (≈ 698 µg/mL)
7 | CC(=O)O[C@H]1CC2(NC(=O)COc3ccc(Cl)c(F)c3)CCC1(NC(=O)COc1ccc(Cl)c(F)c1)CC2 (single isomer, unassigned) [Compound 100] | < 0.82
8 | O=C(COc1ccc(Cl)c(F)c1)NC12CCC(NC(=O)COc3ccc(Cl)c(F)c3)(CC1)[C@@H](OS(=O)(=O)O)C2 [Compound 125, (2S)-1,4-bis[2-(4-chloro-3-fluorophenoxy)acetamido]bicyclo[2.2.2]octan-2-yl hydrogen sulfate] | 152
9 | O=C(COc1ccc(Cl)c(F)c1)NC12CCC(NC(=O)COc3ccc(Cl)c(F)c3)(CC1)[C@@H](OC(=O)NCCOP(=O)(O)O)C2 [Compound 117] | 598 (≈ 416 µg/mL)
10 | O=C(COc1ccc(Cl)c(F)c1)NC12CCC(NC(=O)COc3ccc(Cl)c(F)c3)(CC1)[C@@H](OC(=O)CCCCOP(=O)(O)O)C2 [Compound 127, (2S)-1,4-bis[2-(4-chloro-3-fluorophenoxy)acetamido]bicyclo[2.2.2]octan-2-yl 5-(phosphonooxy)pentanoate] | 645 (≈ 458 µg/mL)
11 | O=C(COc1ccc(Cl)c(F)c1)NC12CCC(NC(=O)COc3ccc(Cl)c(F)c3)(CC1)[C@@H](OCOP(=O)(O)O)C2 [Compound 131, ({(2S)-1,4-bis[2-(4-chloro-3-fluorophenoxy)acetamido]bicyclo[2.2.2]octan-2-yl}oxy)methyl dihydrogen phosphate] | > 1000
